Assay results from patent publication US20030162792A1, “Indole derivatives useful for the treatment of CNS disorders” (H. Lundbeck A/S, priority 2000, published 2003).
Where a name gives a salt, the structure may show the parent alone. Read-outs that look alike come from different tables or passages of the source.

Legend:
5-HT2A receptors = biological target: T1, 5-HT2A receptors (Rattus norvegicus, UniProt P14842); assay: Inhibition of the binding of [3H]Ketanserin to 5-HT2A receptors
T1 construct: membranes from rat brain (cortex) in vitro; from tissue; host or cells: rat brain cortex membranes
T1 sequence (P14842 whole entry): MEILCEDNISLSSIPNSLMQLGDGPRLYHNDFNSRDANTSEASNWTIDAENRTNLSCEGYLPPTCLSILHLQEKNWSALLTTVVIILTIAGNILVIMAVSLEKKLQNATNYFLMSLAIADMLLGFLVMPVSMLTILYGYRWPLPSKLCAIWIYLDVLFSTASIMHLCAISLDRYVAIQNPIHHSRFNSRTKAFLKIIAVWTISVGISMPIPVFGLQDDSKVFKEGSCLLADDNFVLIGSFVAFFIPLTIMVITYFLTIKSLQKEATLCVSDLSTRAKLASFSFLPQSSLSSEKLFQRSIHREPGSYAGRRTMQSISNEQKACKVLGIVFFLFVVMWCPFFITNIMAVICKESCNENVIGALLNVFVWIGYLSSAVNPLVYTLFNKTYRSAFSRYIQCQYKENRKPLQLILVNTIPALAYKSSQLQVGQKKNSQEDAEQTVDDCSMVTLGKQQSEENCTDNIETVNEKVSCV
Experimental: Inhibition of the Binding of [^3H]Ketanserin to 5-HT2A Receptors
The compounds were tested with respect to their affinity for 5-HT2A receptors by determining their ability to inhibit the binding of [^3H]Ketanserin (0.50 nM) to membranes from rat brain (cortex) in vitro. Method described in Sanchez et al. Drug Dev. Res. 1991, 22, 239-250.

[1] = biological target: T2, human cloned dopamine D4.2 receptors expressed in CHO-cells (Homo sapiens, UniProt P21917, DEL265-296); assay: Inhibition of the binding of [3H]YM-09151-2 to human dopamine D4.2 receptors; conditions: for D4-bind. % inhibition of binding: at 50 nM
T2 construct: expressed in transfected cells; host or cells: CHO cells
T2 sequence (P21917 with tags, fused parts or gaps DEL265-296): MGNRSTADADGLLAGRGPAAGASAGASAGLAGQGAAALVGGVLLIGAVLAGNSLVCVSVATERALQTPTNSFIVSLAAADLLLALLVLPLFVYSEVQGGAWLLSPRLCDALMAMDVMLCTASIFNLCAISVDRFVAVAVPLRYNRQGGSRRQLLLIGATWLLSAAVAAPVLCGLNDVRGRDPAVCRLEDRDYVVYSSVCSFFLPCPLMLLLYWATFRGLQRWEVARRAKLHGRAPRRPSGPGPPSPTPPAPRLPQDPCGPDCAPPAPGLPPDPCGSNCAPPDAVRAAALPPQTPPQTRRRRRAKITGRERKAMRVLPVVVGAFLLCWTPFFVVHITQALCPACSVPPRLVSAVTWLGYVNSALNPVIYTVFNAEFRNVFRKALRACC
Description: Method modified from NEN Life Science Products, Inc., technical data certificate PC2533-10/96.

D4 receptor = biological target: T3, D4 receptor (Homo sapiens, UniProt P21917); conditions: various in vitro efficacy assays; cited from earlier work
T3 sequence (P21917 1-419): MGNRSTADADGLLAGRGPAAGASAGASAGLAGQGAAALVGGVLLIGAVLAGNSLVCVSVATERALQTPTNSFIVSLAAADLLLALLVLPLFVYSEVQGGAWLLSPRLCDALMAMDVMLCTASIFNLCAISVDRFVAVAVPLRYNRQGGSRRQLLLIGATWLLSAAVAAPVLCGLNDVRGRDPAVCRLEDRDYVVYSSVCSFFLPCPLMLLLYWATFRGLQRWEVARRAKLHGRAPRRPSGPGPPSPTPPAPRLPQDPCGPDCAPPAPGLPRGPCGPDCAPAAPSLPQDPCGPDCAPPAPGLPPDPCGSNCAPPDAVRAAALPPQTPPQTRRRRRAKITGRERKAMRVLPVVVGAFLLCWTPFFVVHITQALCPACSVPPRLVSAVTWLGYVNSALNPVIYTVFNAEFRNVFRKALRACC

[2] = [3H]Ketanserin 0.50 nM, membranes from rat brain (cortex), read-out: 5-HT2A-bind. IC50

| SMILES | IC50 (5-HT2A receptors; [2]) | D4-bind. % inhibition of binding ([1]; [3H]YM-09151-2 0.06 nM) | other results |
| --- | --- | --- | --- |
| O=S1(=O)c2cccc3cccc(c23)N1CCCN1CCN(c2ccc3[nH]ccc3c2)CC1 [Compound 1a, 2-{3-[4-(1H-Indol-5-yl)piperazin-1-yl]propan-1-yl}-2H-naphtho[1,8-cd]isothiazole 1,1-dioxide, Hydrochloride] | 0.79 nM | – | IC50 ([1]; [3H]YM-09151-2 0.06 nM, membranes of CHO cells, read-out: D4-bind. IC50): 1.9 nM |
| O=S1(=O)c2cccc3cccc(c23)N1CCCN1CCC(c2ccc3[nH]ccc3c2)CC1 [Compound 1d, Hydrochloride] | 9.2 nM | 83% (50 nM) | – |
| O=S1(=O)c2cccc3cccc(c23)N1CCCN1CC=C(c2ccc3[nH]ccc3c2)CC1 [Compound 1c, 2-{3-[4-(1H-Indol-5-yl)-3,6-dihydro-2H-pyridin-1-yl]propan-1-yl}-2H-naphtho[1,8-cd]isothiazole 1,1-dioxide, Hydrochloride] | – | – | IC50 (5-HT2A receptors): 0.48 nM; IC50 [1]: 0.73 nM |
| CC(C)Oc1cccnc1N(C)C1CCN(Cc2ccccc2)CC1 [Compound U-101958] | – | – | Functional activity at D4 receptor (literature) (D4 receptor): partial D4 receptor agonists |
| Cl.O=S1(=O)c2cccc3cccc(c23)N1CCCN1CCN(c2ccc3cc[nH]c3c2)CC1 [Compound 1b, 2-{3-[4-(1H-Indol-6-yl)piperazin-1-yl]propan-1-yl}-2H-naphtho[1,8-cd]isothiazole 1,1-dioxide, Hydrochloride] | 1.8 nM | 91% (50 nM) | – |
